Where “and” joins values, the source holds several entries; their conditions need not be identical. Equal values may be shown once.
Test system: Huh7 psiCHECK-miR122 Renilla luciferase reporter, 48 h
Assay: suppression of miR-122 activity, Renilla luciferase sensor – cell-based, Huh7 psiCHECK-miR122, cherry-pick, dose response (AID 652053)

COc1ccc(NS(=O)(=O)c2ccc(N3CCOCC3)c(NC(=O)c3cccc(F)c3)c2)cc1
AC40: 8.96 µM

C[C@H](CO)N1C[C@H](C)[C@@H](CN(C)Cc2ccc(Cl)c(Cl)c2)Oc2c(NS(=O)(=O)c3ccccc3)cccc2C1=O
AC40: 2.54 µM

Cc1ccc(NS(=O)(=O)c2ccc3c(c2)NC(=O)CO3)cc1C
AC40: 6.29 µM

O=C(Cc1ccccc1)N1C[C@H]2[C@@H](c3ccccc31)[C@@H](CO)N2C(=O)C1CCCCC1
AC40: 6.07 µM

CCN(Cc1ccccc1)C(=O)c1[nH]c2ccc(OC)cc2c1C
AC40: 12 µM

O=C(NC1CCCC1)C(c1ccccc1)N(Cc1ccc2c(c1)OCO2)C(=O)Cc1cccs1 (configuration not stated)
AC40: 6.85 µM

CCOc1ccc(NS(=O)(=O)c2ccc(NC(=S)NC(=O)CC(C)C)cc2)cc1
AC40: 1.68 µM

O=C(c1cn(Cc2ccccc2)nc1-c1ccc(Cl)cc1)N1CCN(c2ccccn2)CC1
AC40: 3.28 µM

Cc1cc(C)c(C)c(S(=O)(=O)NC2CCN(Cc3ccccc3)CC2)c1C
AC40: 9.53 µM

O=S(=O)(c1ccccc1)N1C[C@H]2[C@@H](c3ccccc31)[C@@H](CO)N2Cc1ccc2c(c1)OCO2
AC40: 8.56 µM

O=C(COc1ccc(S(=O)(=O)NC2CCCCC2)cc1)Nc1ccc2c(c1)OCCO2
AC40: 7.82 µM

CCc1cccc2c(C(=O)CN3C(=O)NC4(CCCCC4)C3=O)c[nH]c12
AC40: 6.01 µM

COc1ccccc1NS(=O)(=O)c1cc(NC(=O)c2cccnc2)ccc1N1CCCCC1
AC40: < 0.26 µM

CCOc1ccccc1NC(=O)Cn1nnc(C(=O)NCc2cccs2)c1N
AC40: 5.91 µM

Cc1ccc(NS(=O)(=O)c2cc(C(=O)NCc3ccncc3)ccc2C)cc1
AC40: 2.82 µM

C[C@@H]1CN([C@H](C)CO)C(=O)Cc2cc(NC(=O)Nc3ccc4c(c3)OCO4)ccc2O[C@@H]1CN(C)C(=O)Nc1cccc2ccccc12
AC40: 0.579 µM

C[C@H](CO)N1C[C@H](C)[C@H](CN(C)Cc2ccc(C(=O)Nc3ccccc3N)cc2)Oc2c(NC(=O)Nc3ccccc3)cccc2C1=O
AC40: 30.8 µM

C[C@H]1CN([C@@H](C)CO)C(=O)c2cccc(NC(=O)c3ccncc3)c2O[C@@H]1CN(C)CC1CCCCC1
AC40: 7.44 µM

CCOC(=O)c1cc(S(=O)(=O)NCCc2ccccc2)cn1C
AC40: 3.84 µM

C[C@H](CO)N1C[C@H](C)[C@@H](CN(C)Cc2ccc3c(c2)OCO3)Oc2c(NC(=O)Nc3ccccc3)cccc2C1=O
AC40: 8.95 µM

CC(C)(C)c1ccc(S(=O)(=O)Nc2ccc(C(O)(C(F)(F)F)C(F)(F)F)cc2)cc1
AC40: 5.39 µM

C[C@H]1CN([C@@H](C)CO)S(=O)(=O)c2ccc(C#CCN(C)C)cc2O[C@@H]1CN(C)Cc1ccc2c(c1)OCO2
AC40: 3.68 µM

COc1ccc(S(=O)(=O)N(C)C[C@H]2Oc3ccc(N(C)C)cc3C(=O)N([C@H](C)CO)C[C@@H]2C)cc1
AC40: 9.52 µM

CCOc1ccc(S(=O)(=O)NCc2ccco2)c2ccccc12
AC40: 3.06 µM

CCCC#Cc1ccc2c(c1)O[C@H](CN(C)C(=O)c1ccccn1)[C@@H](C)CN([C@H](C)CO)S2(=O)=O
AC40: 11.3 µM

COCC#Cc1ccc2c(c1)O[C@H](CN(C)Cc1ccc3c(c1)OCO3)[C@@H](C)CN([C@@H](C)CO)S2(=O)=O
AC40: 13.8 µM

Cc1cc(C)cc(NS(=O)(=O)c2ccc(F)cc2)c1
AC40: 10.9 µM

C[C@H]1CN([C@@H](C)CO)C(=O)c2cccc(NC(=O)C3CC3)c2O[C@@H]1CN(C)Cc1ccc(C(F)(F)F)cc1
AC40: 0.42 µM

C[C@@H]1CN([C@@H](C)CO)C(=O)c2cccc(NC(=O)c3cnccn3)c2O[C@H]1CN(C)Cc1ccc(C(F)(F)F)cc1
AC40: 19.2 µM

CC(=O)N1CCSc2ccc(S(=O)(=O)NCCc3ccc(Cl)cc3)cc21
AC40: 4.57 µM

C[C@H](CO)N1C[C@H](C)[C@H](CN(C)Cc2ccc(C(=O)Nc3ccccc3N)cc2)Oc2ccc(NS(=O)(=O)c3cn(C)cn3)cc2CC1=O
AC40: 27 µM

O=C(Nc1ccccc1)c1ccc(NC2CCCCC2)c(S(=O)(=O)N2CCOCC2)c1
AC40: 13.9 µM

Cc1cc(C(C)(C)C)cc(S(=O)(=O)NCCO)c1C
AC40: 1.16 µM

COc1ccccc1NC(=S)NCC1CCCCC1
AC40: 8.17 µM

O=C(NNS(=O)(=O)c1ccc(Cl)cc1)c1cccc(S(=O)(=O)N2CCOCC2)c1
AC40: 5.2 µM

CCc1c(C(=O)Nc2cc(C)cc(C)c2)[nH]c(C)c1C(C)=O
AC40: 14.8 µM

S=C(Nc1ccccc1Cl)NC1CCCCCC1
AC40: 17.2 µM

COc1ccc(NS(=O)(=O)c2cc(-c3cnc(C4CC4)o3)ccc2C)cc1
AC40: 5.35 µM

CCC1=Nc2cc(C(=O)NCc3ccco3)ccc2Sc2ccc(C)cc21
AC40: 4.49 µM

C[C@H](CO)N1C[C@H](C)[C@@H](CN(C)Cc2ccc(Cl)c(Cl)c2)Oc2c(NS(=O)(=O)c3cccs3)cccc2C1=O
AC40: 2.7 µM

Cc1cc(S(=O)(=O)Nc2ccc3ccccc3c2)c(C)s1
AC40: 1.06 µM

Cc1cc(C(=O)Nc2cccc3c2O[C@@H](CN(C)CC2CCCCC2)[C@@H](C)CN([C@@H](C)CO)C3=O)n(C)n1
AC40: 5.85 µM

COc1cccc(C(=O)N2C[C@H]3[C@@H](c4ccccc42)[C@H](CO)N3C(=O)c2ccc(F)cc2)c1
AC40: 33.6 µM

O=S(=O)(Nc1ccc(Cl)cc1)c1cccc2nsnc12
AC40: 14.8 µM

CC(NC(=O)CNC(=S)N(Cc1cccs1)C1CCCC1)c1ccccc1 (configuration not stated)
AC40: 1.47 µM

Cc1ccc(C)c(S(=O)(=O)Nc2ccc(O)cc2)c1
AC40: 8.22 µM

Cc1ccc(C)c(S(=O)(=O)Nc2ccc(C(=O)N3CCOCC3)cc2)c1
AC40: 7.88 µM

CCN(CC(=O)NCc1cccs1)C(=O)c1cccc(S(=O)(=O)Nc2cccc(C)c2)c1
AC40: 6.04 µM

O=S(=O)(Nc1ccc(C(O)(C(F)(F)F)C(F)(F)F)cc1)c1cccc2ccccc12
AC40: 1.45 µM

Cc1cc(S(=O)(=O)Nc2ccc3cn[nH]c3c2)c(C)cc1Cl
AC40: 2.11 µM

CC(C)c1ccc(NC(=O)Cc2cn(C)c3ccccc23)cc1
AC40: 11.9 µM

Cc1ccc(C)c(S(=O)(=O)NC2CCS(=O)(=O)C2)c1 (configuration not stated)
AC40: 8.66 µM

CCOc1ccc(Cl)cc1S(=O)(=O)NC1CCCC1
AC40: 2.27 µM

Cc1ccc(S(=O)(=O)Nc2ccc3ccccc3c2)cc1
AC40: 7.08 µM

CC(=O)Nc1ccc(S(=O)(=O)C(C#N)c2nc3ccccc3nc2NCCO)cc1 (configuration not stated)
AC40: 25.9 µM

Fc1ccccc1Cn1cc(C(=S)N2CCOCC2)c2ccccc21
AC40: 12.4 µM

C[C@@H]1CN([C@H](C)CO)C(=O)c2cccc(NC(=O)c3ccc(-c4nccs4)cc3)c2O[C@@H]1CN(C)Cc1ccc(C(=O)Nc2ccccc2N)cc1
AC40: 6.24 µM

O=S(=O)(Nc1ccc2cn[nH]c2c1)c1cc(Br)ccc1Br
AC40: 4.32 µM

COc1ccc(-c2cc(C)no2)cc1S(=O)(=O)Nc1cccc(C)c1
AC40: 0.83 µM

O=S(=O)(Nc1ncnc2c1oc1ccccc12)c1ccc(Cl)s1
AC40: 18.8 µM

COc1cccc(NS(=O)(=O)c2cc(C)ccc2OC)c1
AC40: 1.53 µM

CCOC(=O)c1c(S(=O)(=O)Nc2cccc(Cl)c2)c(C)n(C)c1C
AC40: 1.08 µM

C[C@H](CO)N1C[C@H](C)[C@@H](CN(C)Cc2ccc3c(c2)OCO3)Oc2c(NC(=O)C3CC3)cccc2C1=O
AC40: 11.7 µM and 3.61 µM

COc1ccc(NS(=O)(=O)c2cc(Br)cc3c2N(C(C)=O)CC3)cc1
AC40: 2.67 µM

O=S(=O)(NCCC1=CCCCC1)c1ccccc1Br
AC40: 2.03 µM

C[C@H](CO)N1C[C@H](C)[C@@H](CN(C)CC2CC2)Oc2c(NC(=O)C3CC3)cccc2C1=O
AC40: 22.2 µM

C=CCNc1cc(F)ccc1S(=O)(=O)NCC=C
AC40: 1.03 µM

CC1=CC(C)(C)N(S(=O)(=O)c2ccc(C)cc2)c2cc(C)ccc21
AC40: 3.72 µM

O=C(C1CCCCC1)N1[C@H](CO)[C@@H]2c3ccccc3N(S(=O)(=O)c3ccccc3)C[C@@H]21
AC40: 3.09 µM

CC(=O)Nc1ccc(S(=O)(=O)Nc2cccc(-c3nc4ccccc4o3)c2)cc1
AC40: 6.93 µM

Cc1cc(Cl)c(S(=O)(=O)NCc2ccccc2)cc1OCC(N)=O
AC40: 8.54 µM

C[C@@H]1CN([C@@H](C)CO)C(=O)c2cccc(N(C)C)c2O[C@@H]1CN(C)Cc1ccc(C(=O)Nc2ccccc2N)cc1
AC40: 3.25 µM

COc1cc(C)c(C(C)C)cc1S(=O)(=O)NC1CC(C)(C)NC(C)(C)C1
AC40: 0.59 µM

O=C(Nc1ccc(N2CCOCC2)c(S(=O)(=O)Nc2cc(Cl)ccc2Cl)c1)c1cccnc1
AC40: 0.681 µM

CN(C)Cc1ccccc1CNC(=O)c1cccc(S(=O)(=O)Nc2ccc3c(c2)OCO3)c1
AC40: 2.15 µM

CC(C)(C)NS(=O)(=O)c1ccc(NC(=S)NC(=O)C2CC2)cc1
AC40: 1.86 µM

CCCC(=O)Nc1nc2ccc(S(=O)(=O)N3CCCCC3)cc2s1
AC40: 8.84 µM

COC(=O)C1CC23C=CCN4CCC5(c6ccccc6NC15C2C)C43 (configuration not stated)
AC40: 20.1 µM

O=C(C(=O)N(Cc1ccccc1)Cc1ccccc1)c1c(-c2ccccc2)[nH]c2ccccc12
AC40: 1 µM

COc1ccc2oc(C(=O)N3CCc4ccccc43)c(C)c2c1
AC40: 5.37 µM

O=S(=O)(Nc1cccc(-n2cnnn2)c1)c1cc(Br)ccc1Br
AC40: 4.94 µM

Cc1ccc(S(=O)(=O)c2cccc(S(=O)(=O)N3CCCC3)c2)cc1S(=O)(=O)N1CCCC1
AC40: 9.91 µM

Cc1cc2c(cc1S(=O)(=O)NCCc1ccccc1)NC(=O)CO2
AC40: 4.41 µM

CCOc1ccc(S(=O)(=O)/N=C(/Nc2ccc(C)c(S(=O)(=O)N3CCOCC3)c2)c2ccccc2)cc1
AC40: 2.23 µM

Cc1ccc(S(=O)(=O)Nc2ccc3c(c2)C(=O)N([C@@H](C)CO)C[C@H](C)[C@H](CN(C)C(=O)Nc2ccc(F)cc2)OCCCC[C@@H](C)O3)cc1
AC40: 1.86 µM

C[C@H](CO)N1C[C@H](C)[C@H](CN(C)Cc2ccc(C(=O)Nc3ccccc3N)cc2)Oc2c(cccc2N(C)C)C1=O
AC40: 8.75 µM

COc1ccc(OC)c(C2C3=C(COC3=O)Nc3cc4c(cc32)OCO4)c1 (configuration not stated)
AC40: 17.7 µM

C[C@@H]1CN([C@@H](C)CO)C(=O)c2cc(N(C)C)ccc2O[C@H]1CN(C)Cc1ccc(C(=O)Nc2ccccc2N)cc1
AC40: 9.78 µM

CC(=O)Nc1ccc(S(=O)(=O)Nc2ccc3c(c2)n(C)c(=O)n3C)c(C)c1
AC40: 3.94 µM

COc1cc(C(CCN2CCOCC2)c2c(OC)cc(OC)c3c(-c4ccccc4)cc(=O)oc23)cc(OC)c1OC (configuration not stated)
AC40: 1.2 µM

O=S(=O)(NCc1ccccc1)c1ccc2c(c1)OCCO2
AC40: 3.42 µM

CN1C(=O)c2cc(NC(=O)NCc3ccccc3)ccc2OC[C@@H]2O[C@@H](CC(=O)NCC3CCCCC3)CC[C@@H]21
AC40: 3.21 µM

Nc1ncc(Br)cc1S(=O)(=O)NC1CCCCC1
AC40: 2.19 µM

COc1ccc(Br)cc1CNC(=O)Nc1cccs1
AC40: 15.5 µM

COc1ccc(NS(=O)(=O)c2c(C)cc(C)cc2C)cc1
AC40: 4.53 µM

CC(C)c1ccc(S(=O)(=O)Nc2ccc3c(c2)OCO3)cc1
AC40: 2.71 µM

O=S(=O)(NCC1CCCO1)c1cccc(C(F)(F)F)c1 (configuration not stated)
AC40: 22.2 µM

Reference: PubChem BioAssay AID652053 (Broad Institute, 2013)
